Laboratory results: paper PMC5727211, “Development of Erasin: a chromone-based STAT3 inhibitor which induces apoptosis in Erlotinib-resistant lung cancer cells” (Scientific Reports, 2017)
One block for each compound: values may come before it.

Legend:
STAT3 SH2 domain = STAT3 SH2 domain (Homo sapiens, UniProt P40763); assay: FP-based competitive binding assay, STAT3 SH2 domain; conditions: mean ± s.d., three experiments; for IC50: 1 h with protein, then 1 h with peptide, read-out: STAT3 app. IC50; for STAT3 inhibition / inhibition at 80 µM: at 80 µM
Description: (§1) The STAT family display a high degree of homology. […] Vilsmeyer-Haack formylation of 2-hydroxy acetophenones led to 3-formyl chromones, which were subsequently converted to the acyl hydrazones by reaction with hydrazides (Fig. 1). The target molecules were tested for their abilities to inhibit binding of fluorophore-labeled peptides to the SH2 domains of STAT1[24], STAT3[25], and STAT5b[26] in assays based on fluorescence polarization (FP). The more distantly related SH2 domain of the tyrosine kinase Lck served as additional specificity control[27],[28].
Assays were performed essentially as described. In brief, protein was incubated with the test compounds for 1 h at room temperature at the following protein concentrations: STAT1: 400 nM, STAT3: 210 nM, STAT5b: 300 nM, Lck SH2: 35 nM. Subsequently, the corresponding fluorophore-labeled peptide was added: STAT1: (5-carboxyfluorescein)-GpYDKPHVL-OH, derived from the interferon-γ receptor[24]; STAT3: (5-carboxyfluorescein)-GpYLPQTV-NH2, derived from the gp130 subunit of the IL-6 receptor[25]; STAT5b: (5-carboxyfluorescein)-GpYLVLDKW-OH, derived from the erythropoietin receptor[26]; Lck SH2: (5-carboxyfluorescein)-GpYEEIP-OH, derived from the middle-T antigen. After a further hour of incubation, fluorescence polarization was measured in a plate reader (Tecan Infinite F500). Apparent IC50 data shown in Tables 1, 2, and S1 and the inhibition curves shown in Fig. 2a correspond to this time point. The majority of the pipetting work was carried out using a Biomek FXp workstation (Beckman-Coulter). […]

STAT1 SH2 domain = target: T1, STAT1 SH2 domain (Homo sapiens, UniProt P42224); assay: FP-based competitive binding assay, STAT1 SH2 domain; conditions: mean ± s.d., three experiments; for inhibition at 80 µM / STAT1 inhibition: at 80 µM; for IC50: 1 h with protein, then 1 h with peptide, read-out: STAT1 app. IC50
T1 sequence (P42224 1-750): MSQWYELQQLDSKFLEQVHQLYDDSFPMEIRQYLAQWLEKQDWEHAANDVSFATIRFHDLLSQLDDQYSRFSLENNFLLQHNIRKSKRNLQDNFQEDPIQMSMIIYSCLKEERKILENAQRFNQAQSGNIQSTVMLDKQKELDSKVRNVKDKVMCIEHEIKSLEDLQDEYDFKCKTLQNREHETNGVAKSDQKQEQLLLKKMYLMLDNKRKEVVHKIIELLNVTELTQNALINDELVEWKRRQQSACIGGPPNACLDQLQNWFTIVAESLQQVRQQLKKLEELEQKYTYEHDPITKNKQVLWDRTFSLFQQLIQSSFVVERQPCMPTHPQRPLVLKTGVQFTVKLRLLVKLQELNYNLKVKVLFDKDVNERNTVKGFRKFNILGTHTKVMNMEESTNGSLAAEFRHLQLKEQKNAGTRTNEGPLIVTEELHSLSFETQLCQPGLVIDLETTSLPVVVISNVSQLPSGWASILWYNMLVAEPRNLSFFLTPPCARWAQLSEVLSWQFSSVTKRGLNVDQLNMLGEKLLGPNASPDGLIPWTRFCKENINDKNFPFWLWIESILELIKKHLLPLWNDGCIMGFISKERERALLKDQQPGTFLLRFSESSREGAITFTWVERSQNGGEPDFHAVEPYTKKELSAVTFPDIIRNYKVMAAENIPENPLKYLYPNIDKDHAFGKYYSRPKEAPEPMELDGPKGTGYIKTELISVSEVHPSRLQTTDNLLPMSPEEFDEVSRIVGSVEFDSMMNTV
Description: as §1
(§2) Assays were performed essentially as described. In brief, protein was incubated with the test compounds for 1 h at room temperature at the following protein concentrations: STAT1: 400 nM, STAT3: 210 nM, STAT5b: 300 nM, Lck SH2: 35 nM. Subsequently, the corresponding fluorophore-labeled peptide was added: STAT1: (5-carboxyfluorescein)-GpYDKPHVL-OH, derived from the interferon-γ receptor[24]; STAT3: (5-carboxyfluorescein)-GpYLPQTV-NH2, derived from the gp130 subunit of the IL-6 receptor[25]; STAT5b: (5-carboxyfluorescein)-GpYLVLDKW-OH, derived from the erythropoietin receptor[26]; Lck SH2: (5-carboxyfluorescein)-GpYEEIP-OH, derived from the middle-T antigen. After a further hour of incubation, fluorescence polarization was measured in a plate reader (Tecan Infinite F500). Apparent IC50 data shown in Tables 1, 2, and S1 and the inhibition curves shown in Fig. 2a correspond to this time point. The majority of the pipetting work was carried out using a Biomek FXp workstation (Beckman-Coulter). Buffer composition: 10 mM Tris pH 8.0, 50 mM NaCl, 1 mM EDTA, 1 mM dithiothreitol (DTT), 0.1% Nonidet P-40, and 2% DMSO.

Lck SH2 = target: T2, Lck SH2 (Homo sapiens, UniProt P06239); assay: FP-based competitive binding assay, Lck SH2 domain; conditions: for Lck inhibition: at 80 µM
T2 construct: STAT1: 400 nM, STAT3: 210 nM, STAT5b: 300 nM, Lck SH2: 35 nM
Description: as §1, §2
Supplementary Figures and Table
No Structure app. IC50 [µM] or
Supplementary Table S1: Activities of test compounds in fluorescence polarization assays against the
SH2 domains of Lck. See the Supporting Methods for details. […]

STAT5b SH2 domain = target: T3, STAT5b SH2 domain (Homo sapiens, UniProt P51692); assay: FP-based competitive binding assay, STAT5b SH2 domain; conditions: mean ± s.d., three experiments; for STAT5b inhibition / inhibition at 80 µM: at 80 µM; for IC50: 1 h with protein, then 1 h with peptide, read-out: STAT5b app. IC50
T3 sequence (P51692 1-787): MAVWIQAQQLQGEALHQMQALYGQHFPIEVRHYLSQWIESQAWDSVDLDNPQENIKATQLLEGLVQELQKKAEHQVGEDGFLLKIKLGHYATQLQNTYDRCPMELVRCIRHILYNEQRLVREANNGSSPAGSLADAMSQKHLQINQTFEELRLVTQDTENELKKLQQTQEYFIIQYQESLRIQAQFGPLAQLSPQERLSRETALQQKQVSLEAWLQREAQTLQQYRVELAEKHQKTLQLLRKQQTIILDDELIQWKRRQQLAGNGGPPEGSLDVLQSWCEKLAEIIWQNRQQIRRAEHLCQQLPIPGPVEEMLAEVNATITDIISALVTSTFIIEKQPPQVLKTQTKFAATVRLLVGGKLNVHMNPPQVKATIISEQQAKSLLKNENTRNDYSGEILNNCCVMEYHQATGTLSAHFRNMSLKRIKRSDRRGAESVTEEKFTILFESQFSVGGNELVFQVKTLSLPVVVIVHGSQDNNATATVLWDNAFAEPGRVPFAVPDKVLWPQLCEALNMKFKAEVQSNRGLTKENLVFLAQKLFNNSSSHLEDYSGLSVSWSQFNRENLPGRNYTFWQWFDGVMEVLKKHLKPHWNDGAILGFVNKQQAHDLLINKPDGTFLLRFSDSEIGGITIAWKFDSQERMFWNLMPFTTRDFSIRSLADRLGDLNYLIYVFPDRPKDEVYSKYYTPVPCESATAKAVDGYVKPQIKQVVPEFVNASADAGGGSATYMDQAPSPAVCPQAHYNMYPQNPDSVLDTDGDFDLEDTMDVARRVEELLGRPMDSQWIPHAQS
Description: as §1, §2

parental HCC-827 cells = assay: Apoptosis assay (Annexin V/7-AAD flow cytometry), parental HCC-827 cells; assay type: cell-based, human; conditions: 24 h
Description: (§3) Afterwards, the cell culture supernatant from each well was collected. […] The supernatants were then returned to each well to neutralize the Accutase solution and the cells were centrifuged at 3000 rpm, at 4 °C for 5 min. The cell pellets were washed twice with cold PBS and centrifuged again. […] Cells were resuspended in 1 x binding buffer and incubated with PE Annexin V and 7-AAD at 4 °C for 30 min. Apoptosis was measured using an LSR II flow cytometer (BD Bioscience). Experiments were carried out in at least triplicate.

[1] = tested on: Erlotinib-resistant HCC-827 cells; assay: Apoptosis assay (Annexin V/7-AAD flow cytometry), Erlotinib-resistant HCC-827 cells; assay type: cell-based, human; conditions: 24 h
Description: as §3, with “triplicate. […]” for “triplicate.”

T2 sequence (P06239 127-224 limits assumed): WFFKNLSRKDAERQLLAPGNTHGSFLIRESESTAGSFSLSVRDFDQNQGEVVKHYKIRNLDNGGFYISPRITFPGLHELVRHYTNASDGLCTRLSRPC
Sequence of STAT3 SH2 domain (P40763 whole entry, the tested form may be a part): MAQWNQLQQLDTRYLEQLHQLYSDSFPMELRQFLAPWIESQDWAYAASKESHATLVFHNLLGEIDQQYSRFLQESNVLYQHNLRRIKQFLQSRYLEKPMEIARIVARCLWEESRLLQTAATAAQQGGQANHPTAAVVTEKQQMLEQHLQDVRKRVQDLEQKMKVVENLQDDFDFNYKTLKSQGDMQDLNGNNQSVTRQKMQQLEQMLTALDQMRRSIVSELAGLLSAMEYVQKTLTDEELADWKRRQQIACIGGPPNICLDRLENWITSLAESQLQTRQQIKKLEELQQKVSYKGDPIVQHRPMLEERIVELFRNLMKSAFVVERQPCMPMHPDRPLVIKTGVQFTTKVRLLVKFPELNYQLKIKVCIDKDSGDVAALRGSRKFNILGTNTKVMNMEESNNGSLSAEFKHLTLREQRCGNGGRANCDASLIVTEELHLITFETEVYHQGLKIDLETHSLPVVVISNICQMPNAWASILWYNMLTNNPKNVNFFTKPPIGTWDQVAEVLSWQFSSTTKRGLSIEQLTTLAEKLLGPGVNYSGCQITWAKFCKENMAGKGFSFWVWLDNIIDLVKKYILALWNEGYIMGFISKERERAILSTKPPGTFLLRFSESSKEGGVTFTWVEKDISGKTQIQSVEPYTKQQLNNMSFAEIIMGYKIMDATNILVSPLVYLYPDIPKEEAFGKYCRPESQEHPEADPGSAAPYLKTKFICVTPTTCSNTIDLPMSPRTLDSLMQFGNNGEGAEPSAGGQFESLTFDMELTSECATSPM

Compound: O=C(N/N=C/c1coc2ccc(-c3ccccc3)cc2c1=O)c1cccnc1 [Compound 10]
Lck inhibition (Lck SH2): no inhibition | STAT3 inhibition (STAT3 SH2 domain): 35 ± 5% inhibition at 80 µM | STAT1 inhibition (STAT1 SH2 domain): 36 ± 2% inhibition at 80 µM | STAT5b inhibition (STAT5b SH2 domain): no inhibition at 80 µM

Compound: CC(C)(C)c1ccc2occ(/C=N/NC(=O)c3ccc(Cl)cc3)c(=O)c2c1 [Compound 21]
STAT3 inhibition (STAT3 SH2 domain): 20 ± 2% at 80 µM | STAT1 inhibition (STAT1 SH2 domain): 12 ± 4% inhibition at 80 µM

Compound: O=C(N/N=C/c1coc2ccc([N+](=O)[O-])cc2c1=O)c1cccnc1 [Compound 12]
inhibition at 80 µM (Lck SH2): 22 ± 6% | inhibition at 80 µM (STAT3 SH2 domain): 14 ± 2% | inhibition at 80 µM (STAT1 SH2 domain): 3 ± 3% | STAT5b inhibition (STAT5b SH2 domain): no inhibition at 80 µM

Compound: O=C(N/N=C/c1coc2ccc(Cl)cc2c1=O)c1cccnc1 [Compound 3]
inhibition at 80 µM (Lck SH2): 6 ± 6% | IC50 (STAT3 SH2 domain): 40 ± 3 µM | IC50 (STAT1 SH2 domain): 32 ± 11 µM | inhibition at 80 µM (STAT5b SH2 domain): 31 ± 4%

Compound: CC(C)(C)c1ccc2occ(/C=N/NS(=O)(=O)c3ccccc3)c(=O)c2c1 [Compound 23]
inhibition at 80 µM (STAT3 SH2 domain): 4 ± 3%

Compound: CC(C)(C)c1ccc2occ(/C=N/NC(=O)c3ccc[nH]3)c(=O)c2c1 [Compound 19]
IC50 (STAT3 SH2 domain): 50 ± 7 µM | STAT1 inhibition (STAT1 SH2 domain): 9 ± 4% inhibition at 80 µM

Compound: CC(C)(C)c1ccc2occ(/C=N/NC(=O)c3ccco3)c(=O)c2c1 [Compound 17]
IC50 (STAT3 SH2 domain): 14 ± 1 µM | IC50 (STAT1 SH2 domain): 49 ± 2 µM

Compound: Cc1ccc2occ(/C=N/NC(=O)c3cccnc3)c(=O)c2c1 [Compound 5]
Lck inhibition (Lck SH2): no inhibition | inhibition at 80 µM (STAT3 SH2 domain): 40 ± 2% | inhibition at 80 µM (STAT1 SH2 domain): 12 ± 3% | IC50 (STAT5b SH2 domain): 32 ± 24 µM

Compound: C#Cc1cccc(Nc2ncnc3cc(OCCOC)c(OCCOC)cc23)c1 [Erlotinib]
apoptosis (parental HCC-827 cells; 1 nM): significant increase in apoptosis | induction of apoptosis (parental HCC-827 cells; 1 µM): more than tenfold induction of apoptosis | apoptosis ([1]; 10 nM): did not show increased apoptosis | increase of the apoptotic rate ([1]; 1 µM): only a twofold increase

Compound: CC(C)(C)c1ccc2occ(/C=N/NCc3ccccc3)c(=O)c2c1 [Compound 22]
inhibition at 80 µM (STAT3 SH2 domain): 9 ± 3%

Compound: COc1cccc(C(=O)N/N=C/c2coc3ccc(C(C)(C)C)cc3c2=O)c1 [Compound 16]
inhibition at 80 µM (STAT3 SH2 domain): 42 ± 2% | inhibition at 80 µM (STAT1 SH2 domain): 15 ± 2%

Compound: CC(C)c1ccc2occ(/C=N/NC(=O)c3cccnc3)c(=O)c2c1 [Compound 7]
Lck inhibition (Lck SH2): no inhibition | IC50 (STAT3 SH2 domain): 22 ± 1 µM | IC50 (STAT1 SH2 domain): 39 ± 2 µM | IC50 (STAT5b SH2 domain): 52 ± 12 µM

Results, then the compound that gave them:

IC50 (STAT3 SH2 domain): 39 ± 4 µM | inhibition at 80 µM (STAT1 SH2 domain): 32 ± 0.1%
Compound: CC(C)(C)c1ccc2occ(/C=N/NC(=O)c3cccs3)c(=O)c2c1 [Compound 18]

IC50 (STAT3 SH2 domain): 14 ± 2 µM | IC50 (STAT1 SH2 domain): 35 ± 4 µM
Compound: CC(C)(C)c1ccc2occ(/C=N/NC(=O)c3ccccc3)c(=O)c2c1 [Compound 13]

inhibition at 80 µM (STAT3 SH2 domain): 31 ± 8% | inhibition at 80 µM (STAT1 SH2 domain): 10 ± 5%
Compound: CC(C)(C)c1ccc2occ(/C=N/NC(=O)c3ccc(F)cc3)c(=O)c2c1 [Compound 20]

IC50 (STAT3 SH2 domain): 19 ± 1 µM | IC50 (STAT1 SH2 domain): 77 ± 16 µM
Compound: CC(C)(C)c1ccc2occ(/C=N/NC(=O)c3ccc(O)cc3)c(=O)c2c1 [Compound 14]

IC50 (STAT3 SH2 domain): 8.9 ± 0.8 µM | IC50 (STAT1 SH2 domain): 15 ± 1.4 µM | IC50 (STAT5b SH2 domain): 27.7 ± 1.5 µM
Compound: CC(C)(C)c1ccc2occ(C=O)c(=O)c2c1 [Compound 8a]

IC50 (STAT3 SH2 domain): 5.3 ± 0.4 µM | IC50 (STAT1 SH2 domain): 10.7 ± 1.1 µM | IC50 (STAT5b SH2 domain): 34.8 ± 4.2 µM
Compound: CCC(C)(C)c1ccc2occ(C=O)c(=O)c2c1 [Compound 9a]

IC50 (STAT3 SH2 domain): 26 ± 5 µM | inhibition at 80 µM (STAT1 SH2 domain): 34 ± 4%
Compound: COc1ccc(C(=O)N/N=C/c2coc3ccc(C(C)(C)C)cc3c2=O)cc1 [Compound 15]

inhibition at 80 µM (Lck SH2): 13 ± 2% | IC50 (STAT3 SH2 domain): 25 ± 1 µM | inhibition at 80 µM (STAT1 SH2 domain): 36 ± 6% | inhibition at 80 µM (STAT5b SH2 domain): 33 ± 7%
Compound: O=C(N/N=C/c1coc2ccc(Br)cc2c1=O)c1cccnc1 [Compound 4]

inhibition at 80 µM (Lck SH2): 23 ± 2% | IC50 (STAT3 SH2 domain): 65 ± 1 µM | inhibition at 80 µM (STAT1 SH2 domain): 19 ± 2% | inhibition at 80 µM (STAT5b SH2 domain): 30 ± 7%
Compound: COc1ccc2occ(/C=N/NC(=O)c3cccnc3)c(=O)c2c1 [Compound 11]
